Entries after “also recorded” stand apart in the source; their conditions may differ. Counter-ions that a name gives are not always drawn. Like-named read-outs stand apart in the source and are kept apart here.
Legend:
mice [1] = test: CNS-activity and acute toxicity test; conditions: mice, intraperitoneal
Procedure: (§1) Adult male NMRI mice (3 months old, weighing 35–40 g) from Janvier labs (Le Genest-Saint-Isle, France) were used to perform experiments. Mice were housed by ten in standard polycarbonate cages in standard controlled conditions (22 ± 2°C, 55 ± 10% humidity) with a reversed 12 h light/dark cycle (light on at 7 pm). Food and water were available ad libitum in the home cage.
(§2) The approximate DL50 of the compounds were also calculated through the quantification of mortality after 24 h. Amphetamine (2 mg/kg), chlorpromazine (10 mg/kg) were used as a stimulant and depressive references, respectively.
(§3) Amphetamine, (+)-α-Methylphenethylamine hemisulfate, chlorpromazine hydrochloride, imipramine hydrochloride and scopolamine hydrobromide were purchased from Sigma (France). All those pharmacological compounds were dissolved in NaCl 0.9% as the vehicle were administered IP 30 min before tests, except scopolamine which was subcutaneously administered 20 min before spontaneous alternation test.

(h)5-HT6R [2] = target: T1, (h)5-HT6R (Homo sapiens, UniProt P50406); test: Blockade of the 5-HT6R-induced cAMP production in transfected COS-7 cells; format: cell-based; conditions: for (h)5-HT6R % control antagonist response: SB271046 as control 5-HT6R antagonist, n = 2
T1 construct: HA; expressed in transfected cells; host or cells: COS-7 cells, transient electroporation
T1 sequence (P50406 whole entry): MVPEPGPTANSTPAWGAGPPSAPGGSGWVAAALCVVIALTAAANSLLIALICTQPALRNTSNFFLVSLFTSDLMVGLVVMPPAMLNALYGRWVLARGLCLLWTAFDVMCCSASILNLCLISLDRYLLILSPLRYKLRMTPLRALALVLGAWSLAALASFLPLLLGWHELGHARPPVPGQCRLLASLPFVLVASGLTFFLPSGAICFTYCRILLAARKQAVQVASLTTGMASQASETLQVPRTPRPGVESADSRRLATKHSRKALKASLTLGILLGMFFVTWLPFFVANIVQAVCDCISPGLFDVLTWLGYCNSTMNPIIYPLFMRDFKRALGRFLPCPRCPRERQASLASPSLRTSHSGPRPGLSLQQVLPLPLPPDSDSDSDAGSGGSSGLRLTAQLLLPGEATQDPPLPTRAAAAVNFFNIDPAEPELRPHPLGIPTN
Procedure: (§4) COS-7 cells were grown in Dulbecco’s modified Eagle medium (DMEM) supplemented with 10% dialyzed fetal calf serum (dFCS) and antibiotics. Cells were transiently transfected by electroporation with plasmids encoding HA-tagged 5-HT4R (100 ng/10^6 cells) or HA-tagged 5-HT6R (70 ng/10^6 cells or 300 ng/10^6 cells), then seeded in 96-well plates (16,000 cells/well).
Blockade of the 5-HT6R-induced cAMP production: 24 h after transfection, cells were exposed to the indicated concentrations of 5-HT6R ligands at 37°C in 50 μL of HBS. […] After 10 min at 37°C, cells were then lysed by addition of 100 μL of Triton-X100 (0.1%).
(§5) Quantification of cAMP production was performed by HTRF® by using the cAMP Dynamic kit (Cisbio Bioassays) according to the manufacturer’s instructions.

human 5-HT6 receptors = target: T2, human 5-HT6 receptors (Homo sapiens, UniProt P50406); test: [3H]-LSD competition binding on membranes of HEK-293 cells expressing human 5-HT6 receptors; conditions: for inhibition: 2.5 nM [3H]-LSD
T2 construct: purchased Perkin Elmer RBHS6M; host or cells: HEK-293 cells, transient expression (membranes)
T2 sequence (P50406 whole entry): as above
Procedure: Drugs were evaluated through their possibility to compete for the binding of [^3H]-LSD on membranes of HEK-293 cells transiently expressing the human 5-HT6 receptors (ref. RBHS6M, Perkin Elmer). […] At the end of the incubation, the homogenates were then filtered through Whatman GF/C filters and washed five times with ice-cold 25 mM Tris-HCl buffer. Non-specific binding was evaluated in the presence of 100 μM serotonin. Radioactivity associated to proteins was then quantified and expressed as the percentage of inhibition of the drugs under study.
(§6) For some of these compounds, affinity constants were calculated from five-point inhibition curves using the GraphPad Prism 6 software and expressed as Ki ± SD.

(h)5-HT6R [3] = target: T1, (h)5-HT6R; test: Reversion of the basal 5-HT6R-induced cAMP production (constitutive activity) in COS-7 cells; format: cell-based; conditions: for cAMP production in the absence of agonist (inverse agonist activity): 10^−4M, absence of 5-HT; for (h)5-HT6R Profile: cAMP
Procedure: as §4
Reversion of the basal 5-HT6R-induced cAMP production: the 5-HT6R expression was augmented by transfection of higher quantities of cDNA (300 ng/10^6 cells) to increase the basal cAMP production linked to the constitutive activity of the receptor. […] This experiment is performed in the absence of 5-HT. After 10 min at 37°C, cells were then lysed by addition of 100 μL of Triton-X100 (0.1%).
as §5

Human 5-HT4R = target: T3, Human 5-HT4R (Homo sapiens, UniProt Q13639); test: [3H]-GR113808 competition binding on 5-HT4(b) membrane preparations; conditions: for inhibition: 0.2 nM [3H]-GR113808
T3 construct: purchased Eurofins HTS110M
T3 sequence (Q13639 whole entry): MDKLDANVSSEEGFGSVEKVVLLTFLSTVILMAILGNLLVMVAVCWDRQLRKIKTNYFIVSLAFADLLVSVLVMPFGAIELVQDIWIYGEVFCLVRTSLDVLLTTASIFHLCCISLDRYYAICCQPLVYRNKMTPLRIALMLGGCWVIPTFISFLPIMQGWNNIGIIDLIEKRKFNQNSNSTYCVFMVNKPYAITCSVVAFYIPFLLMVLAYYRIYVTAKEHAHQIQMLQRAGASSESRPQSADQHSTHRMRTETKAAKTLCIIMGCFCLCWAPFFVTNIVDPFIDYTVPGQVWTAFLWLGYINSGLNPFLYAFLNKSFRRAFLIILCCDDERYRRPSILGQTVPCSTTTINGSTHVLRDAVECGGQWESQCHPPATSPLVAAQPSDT
Procedure: At the end of the incubation, homogenates were filtered through Whatman GF/C filters (Alpha Biotech) presoaked with 0.5% polyethylenimine using a Brandel cell harvester. Filters were subsequently washed three times with 1 mL of ice-cold 25 mM Tris buffer (pH 7.4, 4°C). Non-specific binding was evaluated in parallel in the presence of 30 μM serotonin.
as §6

[4] = target: T4, AChE from human erythrocytes (Homo sapiens, UniProt P22303); test: biochemical; conditions: for IC50: n = 2, read-out: (h)AChE IC50; for inhibition at 1 µM: read-out: (h)AChE % inhibition at 10^−6M
T4 construct: AChE from human erythrocytes; purchased Sigma Aldrich; host or cells: human erythrocytes (natural source)
T4 sequence (P22303 other isoform, or with tags, fused parts or gaps): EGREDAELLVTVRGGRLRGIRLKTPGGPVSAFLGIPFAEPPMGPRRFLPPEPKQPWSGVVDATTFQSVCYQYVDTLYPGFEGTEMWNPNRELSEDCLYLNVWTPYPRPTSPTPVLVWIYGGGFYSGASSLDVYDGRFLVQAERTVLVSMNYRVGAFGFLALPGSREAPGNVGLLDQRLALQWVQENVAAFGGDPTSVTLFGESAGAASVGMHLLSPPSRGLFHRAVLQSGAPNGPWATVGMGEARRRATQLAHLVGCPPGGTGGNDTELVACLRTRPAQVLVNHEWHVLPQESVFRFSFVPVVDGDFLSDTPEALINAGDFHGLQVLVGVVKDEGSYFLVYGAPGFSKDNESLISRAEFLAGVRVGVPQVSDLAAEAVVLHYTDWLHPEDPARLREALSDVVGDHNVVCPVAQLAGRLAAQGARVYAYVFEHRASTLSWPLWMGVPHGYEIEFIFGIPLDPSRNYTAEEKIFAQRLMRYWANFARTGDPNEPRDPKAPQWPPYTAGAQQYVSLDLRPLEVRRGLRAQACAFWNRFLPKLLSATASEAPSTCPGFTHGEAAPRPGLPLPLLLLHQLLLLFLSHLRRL
Procedure: Acetylthiocholine iodide and 5,5-dithiobis-(2-nitrobenzoic) acid (DTNB) were purchased from Sigma Aldrich. AChE from human erythrocytes (buffered aqueous solution, ≥500 units/mg protein (BCA), Sigma Aldrich) was diluted in 20 mM HEPES buffer pH 8, 0.1% Triton X-100 such as to have enzyme solution with 0.25 unit/mL enzyme activity. In the procedure, 100 μL of 0.3 mM DTNB dissolved in phosphate buffer pH 7.4 was added into the 96-well plate followed by 50 μL of test compound solution and 50 μL of enzyme (0.05 U final). After 5 min of preincubation at 25°C, the reaction was then initiated by the injection of 50 μL of 10 mM acetylthiocholine iodide solution. […] Assays were performed with a blank containing all components except acetylthiocholine, in order to account for non-enzymatic reaction. The reaction slopes were compared and the percent inhibition due to the presence of test compounds was calculated by the following expression: 100 − (vi/v0 × 100) where vi is the rate calculated in the presence of inhibitor and v0 is the enzyme activity.

mice [5] = test: Locomotor activity (actimeter); format: in vivo; conditions: IP 30 min before test, 1, 3 and 10 mg/kg, 30 min recording
Procedure: as §1, §3

(h)5-HT4(a)R = target: T5, (h)5-HT4(a)R (Homo sapiens, UniProt Q13639); test: 5-HT4R-induced cAMP production in transfected COS-7 cells; format: cell-based
T5 construct: HA; expressed in transfected cells; host or cells: COS-7 cells, transient electroporation
T5 sequence (Q13639 1-387 isoform Q13639-2): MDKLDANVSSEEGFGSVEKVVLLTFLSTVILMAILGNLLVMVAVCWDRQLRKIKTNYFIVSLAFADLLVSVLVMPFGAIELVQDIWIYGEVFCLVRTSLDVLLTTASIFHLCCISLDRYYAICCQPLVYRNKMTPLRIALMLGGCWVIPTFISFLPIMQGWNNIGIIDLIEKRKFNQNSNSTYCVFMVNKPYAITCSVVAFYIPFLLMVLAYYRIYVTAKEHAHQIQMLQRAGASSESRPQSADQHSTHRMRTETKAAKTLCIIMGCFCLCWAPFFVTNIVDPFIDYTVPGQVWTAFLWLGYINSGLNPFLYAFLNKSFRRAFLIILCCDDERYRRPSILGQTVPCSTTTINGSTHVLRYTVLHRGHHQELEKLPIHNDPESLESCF
Procedure: as §4
After 10 min, cells were then lysed by addition of the same volume of Triton-X100 (0.1%).
as §5

[6] = CNS-activity and acute toxicity test; conditions: male, NMRI, mouse, in vivo, ip
Procedure: as §1, §2, §3

mice [7] = test: Spatial working memory: scopolamine-induced deficit of spontaneous alternation in the Y maze; format: in vivo, NMRI mice; conditions: IP 30 min before test, 0.3, 1, 3 mg/kg, scopolamine 0.5 mg/kg SC, effect at doses starting from 0.3 mg/kg
Procedure: as §1
An arm entry was scored when all four feet crossed into the arm. An alternation was defined as entries into all three arms on a consecutive occasion.
as §3

[8] = read-out: (h)5-HT6R % inhibition at 10^−8M, 10^−8M
[9] = read-out: (h)5-HT4R % inhibition at 10^−6M, 10^−6M
[10] = read-out: (h)5-HT4R % inhibition at 10^−8M, 10^−8M
[11] = read-out: (h)5-HT6R % inhibition at 10^−6M, 10^−6M

Row | Compound | (h)5-HT6R % control antagonist response ((h)5-HT6R [2]) | inhibition (human 5-HT6 receptors; [8]) | cAMP production in the absence of agonist (inverse agonist activity) ((h)5-HT6R [3]) | (h)5-HT6R Profile ((h)5-HT6R [3]) | inhibition (Human 5-HT4R; [9]) | inhibition (Human 5-HT4R; [10]) | inhibition (human 5-HT6 receptors; [11]) | IC50 [4] | inhibition at 1 µM [4] | also measured
1 | CN(C)CCCN1c2ccccc2Sc2ccc(Cl)cc21 [Chlorpromazine, chlorpromazine hydrochloride] | – | – | – | – | – | – | – | – | – | Symptoms (subtoxic doses) (mice [1]; 10 mg/kg, depressive reference): Hypoactivity; also recorded: Ataxia; also recorded: Sleep
2 | C[C@H](N)Cc1ccccc1 [Amphetamine, (+)-α-Methylphenethylamine hemisulfate] | – | – | – | – | – | – | – | – | – | Symptoms (subtoxic doses) (mice [1]; 2 mg/kg, stimulant reference): Hyperactivity; also recorded: Exopthalmy; also recorded: Irritability
3 | Fc1ccc2c(CCNCc3cccc(OCC(F)(F)C(F)F)c3)c[nH]c2c1 [compound 2, idalopirdine, reference compound] | 101.2 ± 3.2 n = 2% | 88% | decreased cAMP production below the basal | Inverse agonist | – | – | – | – | – | –
4 | COc1cc(N)c(Cl)cc1C(=O)CCC1CCN(Cc2ccc(F)cc2)CC1 [5o, 1-(4-Amino-5-chloro-2-methoxyphenyl)-3-(1-(4-fluorobenzyl)piperidin-4-yl)propan-1-one] | – | 13% | – | – | 102% | 19% | 58% | 78.4 ± 12.1 nM | 92% | –
5 | COc1cc(N)c(Cl)cc1C(=O)CCC1CCN(Cc2cccc([N+](=O)[O-])c2)CC1 [5n, 1-(4-Amino-5-chloro-2-methoxyphenyl)-3-(1-(3-nitrobenzyl)piperidin-4-yl)propan-1-one] | – | 0% | – | – | 90% | 3% | 51% | – | 64% | –
6 | COc1cc(N)c(Cl)cc1C(=O)CCC1CCN(Cc2cccc(C)c2)CC1.O=C(O)/C=C/C(=O)O [compound 10, 1-(4-Amino-5-chloro-2-methoxyphenyl)-3-(1-(3-methylbenzyl)piperidin-4-yl)propan-1-one fumaric acid salt] | 93.4 ± 1.8 n = 2% | – | decreased cAMP production below the basal | Inverse agonist | – | – | – | 33.7 ± 1.7 nM | – | Effect on spontaneous locomotor activity (mice [5]): did neither modify spontaneous locomotor activity; IC50 ((h)5-HT6R [2]): 10000 nM; Ki (Human 5-HT4R; (h)5-HT4R Ki, n = 3, Ki ± SD): 210 ± 43 nM; EC50 ((h)5-HT4(a)R): 20 nM; (h)5-HT4(a)R % control agonist response ((h)5-HT4(a)R; 5-HT as control 5-HT4R agonist, n = 2): 59.8 ± 2.5 n = 2%; (h)5-HT4(a)R Profile ((h)5-HT4(a)R; cAMP, COS-7 cells): Partial agonist; Symptoms (subtoxic doses) (mice [1]; 1–10–100 mg/kg): did not show any deleterious signs; also recorded: No symptoms; LD50 at 24 h [6]: > 100 mg/kg; Ki (human 5-HT6 receptors; (h)5-HT6R Ki, n = 3, Ki ± SD): 219 ± 42 nM; Effect on scopolamine-induced spontaneous alternation deficit (mice [7]): anti-amnesic effect was observed

Reference: publication PMC6611404 (Frontiers in Aging Neuroscience, 2019)
